The test system of data set [1] is clotting via the extrinsic pathway. The data set can be described thus: Prothrombin time (PT) assay in human plasma. It is filed as biochemical. As to conditions: at 10 μM. The source says:
(§1) Citrated, platelet-poor plasma samples from healthy adults were collected, prepared, and stored using previously established collection protocols, such as in Zdenek et al. (2019) Toxicol in Vitro, 58: 97-109.
(§2) Standard coagulation assays were used to determine the effect of the inhibitors on the clotting time of human plasma. Activated partial thromboplastin time (aPTT) uses a Kaolin reagent (clay) to activate the intrinsic/contact pathway of the coagulation cascade, whereas prothrombin time (PT) uses Neoplastine (lyophilized thromboplastin prepared from rabbit cerebral tissue) to activate the extrinsic/tissue-factor pathway of the coagulation cascade. A minor adjustment was made to both tests (addition of 25 μL inhibitor or buffer; refer to Table 17) to accommodate the addition of an inhibitor without changing the total volume (and therefore relative ratios of additives) of the assay. Concentrations of inhibitor are reported as the concentration at the point of incubation in the assay, i.e. not taking into account the addition of the start reagent (calcium for aPTT, or Neoplastine for PT).
(§3) Clotting time (seconds) of plasma was automatically measured using a STA-R Max® analyzer (Stago, Asnieres sur Seine, France). Measurements were conducted using a viscosity-based (mechanical) detection system, whereby opposing magnets oscillate a small metal spherical pellet inside the test cuvette (250 μL total volume) until a clot is formed. Dilution of the inhibitor in Owren-Koller (OK) buffer for dose-response curves was performed automatically by the machine. Reagents were kept at 15-19° C. in the machine during experimentation and otherwise stored at 4° C. All tests were performed in triplicate.

The target in data set [2] is T1, Rec. human tPA (Homo sapiens, UniProt P00750).
T1 construct: made in house; host or cells: Expi293 cells
The data set can be described thus: tPA inhibition assay. It is filed as biochemical. The protocol:
(§4) The activity of acyclic and cyclic MCoFx1-5 and analogues thereof was assessed in competitive inhibition assays, as previously described in Swedberg et al. (2016) J Med Chem, 59: 7287-7292. Human β-FXIIa was obtained from Molecular Innovations, together with human FXa, human FXIa, human α-thrombin, and human plasma kallikrein. Human cationic trypsin and human plasmin were obtained from Sigma-Aldrich, and recombinant human matriptase was sourced from R&D Systems. Recombinant human urokinase (uPA) and recombinant human tissue plasminogen activator (tPA) were expressed in Expi293 cells, as previously described in Li et al. (2019) Chembiochem, 20: 46-50. FXIIa inhibition assays were performed in clear, low-binding 96-well plates using 250 μL (final volume) of assay buffer (0.1 M Tris-HCl pH 8.0, 0.1 M NaCl, 10 mM CaCl2 and 0.005% Triton X-100). Inhibitors were serially diluted and incubated with 10 nM FXIIa at room temperature to reach equilibrium. After adding 100 μM Ac-QRFR-pNA substrate (KM=162 μM), enzymatic activity was measured by monitoring release of the pNA moiety using a TECAN infinite M1000 Pro plate reader (A=405 nm, reading interval, 10 s; assay time course, 7 min). Assays were conducted in three times in duplicate. Substrate kinetic constants (Michaelis-Menten) and inhibition constants (Morrison K) were determined by non-linear regression using Prism 7 (GraphPad). Selectivity assays with off-target proteases were performed in a similar way, except that different concentrations of enzyme and substrate were used, as indicated in Table 16. For assays using a fluorescent substrate (peptide-4-methylcoumaryl-7-amide, MCA), black low-binding 96-well plates were used and activity was measured using a TECAN infinite M1000 pro plate reader (λex 360 nm, λem 460 nm, reading interval, 30 s; assay time course, 5-30 min).

Data set [3] deals with T2, Human FXIa (Homo sapiens, UniProt P03951).
T2 construct: Human β-FXIIa was obtained from Molecular Innovations, together with human FXa, human FXIa, human α-thrombin, and human plasma kallikrein; purchased Molecular Innovations; host or cells: purified from human plasma
The data set can be described thus: FXIa inhibition assay. It is filed as biochemical. The protocol:
as §4

The target of data set [4] is T3, Human β-FXIIa (Homo sapiens, UniProt P00748).
T3 construct: Human β-FXIIa was obtained from Molecular Innovations, together with human FXa, human FXIa, human α-thrombin, and human plasma kallikrein; purchased Molecular Innovations; host or cells: purified from human plasma
The data set can be described thus: FXIIa competitive inhibition assay, colorimetric substrate Ac-QRFR-pNA. It is filed as biochemical. In short, it runs like this:
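Assays run three times in duplicate at pH 8.0 (Tris-HCl, NaCl, CaCl2, Triton X-100). Rates of pNA or MCA release after enzyme–inhibitor equilibration at room temperature were fitted by non-linear regression to the Morrison equation for Ki.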

For data set [5], the target named is T4, Rec. human uPA (Homo sapiens, UniProt P00749).
T4 construct: made in house; host or cells: Expi293 cells
The data set is described as follows: uPA inhibition assay. It is filed as biochemical. The protocol:
as §4

Data set [6] concerns clotting via the intrinsic pathway. The data set is described as follows: Activated partial thromboplastin time (aPTT) assay in human plasma. It is filed as biochemical.
Description: as §1, §2, §3

The target of data set [7] is T5, Human thrombin (Homo sapiens, UniProt P00734).
T5 construct: Human β-FXIIa was obtained from Molecular Innovations, together with human FXa, human FXIa, human α-thrombin, and human plasma kallikrein; purchased Molecular Innovations; host or cells: purified from human plasma
The data set is described as follows: Thrombin inhibition assay. It is filed as biochemical. The protocol: as §4

In data set [8] the target is T6, Human plasma kallikrein (Homo sapiens, UniProt P03952).
T6 construct: Human β-FXIIa was obtained from Molecular Innovations, together with human FXa, human FXIa, human α-thrombin, and human plasma kallikrein; purchased Molecular Innovations; host or cells: purified from human plasma
The data set is described as follows: Plasma kallikrein inhibition assay. It is filed as biochemical. The protocol: as §4

Data set [9] addresses T7, Human trypsin (Homo sapiens, UniProt P07477).
T7 construct: purchased Sigma-Aldrich; host or cells: purified from human tissue
The data set is described as follows: Trypsin competitive inhibition assay. It is filed as biochemical. The protocol:
as §4

The target of data set [10] is T8, Rec. human matriptase (Homo sapiens, UniProt Q9Y5Y6).
T8 construct: purchased R&D Systems
T8 sequence (Q9Y5Y6 615-855 limits assumed): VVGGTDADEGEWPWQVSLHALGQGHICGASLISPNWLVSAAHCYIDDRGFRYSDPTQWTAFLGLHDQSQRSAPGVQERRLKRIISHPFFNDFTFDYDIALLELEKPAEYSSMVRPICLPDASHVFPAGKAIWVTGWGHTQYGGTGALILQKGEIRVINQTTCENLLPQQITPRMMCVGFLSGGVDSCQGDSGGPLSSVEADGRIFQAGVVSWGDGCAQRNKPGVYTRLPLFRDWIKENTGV
The data set is described as follows: Matriptase inhibition assay. It is filed as biochemical. The protocol:
as §4

The target in data set [11] is T9, Human FXa (Homo sapiens, UniProt P00742).
T9 construct: Human β-FXIIa was obtained from Molecular Innovations, together with human FXa, human FXIa, human α-thrombin, and human plasma kallikrein; purchased Molecular Innovations; host or cells: purified from human plasma
The data set can be described thus: FXa inhibition assay. It is filed as biochemical. The protocol:
as §4

Data set [12] has as its target T10, Human plasmin (Homo sapiens, UniProt P00747).
T10 construct: Human cationic trypsin and human plasmin were obtained from Sigma-Aldrich, and recombinant human matriptase was sourced from R&D Systems; purchased Sigma-Aldrich; host or cells: purified from human plasma
The data set is described as follows: Plasmin inhibition assay. It is filed as biochemical. The protocol: as §4

Data set [13] in a line: Stability in human serum. As to conditions: human serum, 37° C., up to 24 h. The protocol:
Briefly, peptides were incubated at a final concentration of 30 μM in human serum (human male AB serum, Sigma-Aldrich) at 37° C. for 0, 1, 12 and 24 h. The reaction was stopped at designated times, with the serum proteins being denatured by addition of two volumes of acetonitrile (v/v). The samples were then spun at 17,000 g for 10 min and the amount of peptide in the supernatant was quantified using analytical HPLC. The percentage of peptide remaining at 1, 12 and 24 h was calculated using the area of the serum-treated peptide peak from 0 h as 100%.

The target of data set [14] is T11, biotinylated human β-FXIIa (Homo sapiens, UniProt P00748).
T11 construct: purchased Molecular Innovations
The data set is described as follows: Surface plasmon resonance binding to FXIIa. The protocol:
Binding kinetics of each peptide towards biotinylated human β-FXIIa (Molecular Innovations) and non-labelled zymogen FXII (Haematologic Technologies) were determined using a Biacore T200 machine (Cytiva). For β-FXIIa binding measurements, the running buffer was HBS-EP+(10 mM HEPES, 150 mM NaCl, 3 mM EDTA and 0.05% (v/v) surfactant P20, pH 7.4). Biotinylated β-FXIIa was immobilized on a Sensor Chip CAP (Cytiva) using Biotin CAPture Reagent (Cytiva). A series of concentrations of each peptide were injected as analyte and the binding kinetics were modelled using a 1:1 binding model. Regeneration of sensor surface was performed after each measurement cycle. For FXII binding measurements, the running buffer was PBST (137 mM NaCl, 2.7 mM KCl, 10 mM Na2HPO4, 1.8 mM KH2PO4, 0.05% Tween-20). Non-labelled FXII was immobilized on a Sensor Chip CM5 (Cytiva) using Amine Coupling Kit (Cytiva), achieving a final immobilization level of 2500 RU. Each peptide was flowed through immobilized FXII at 5 μM for 60 s and allowed dissociation for 150 s.

In data set [15] the target is T12, bovine trypsin (Bos taurus, UniProt P00760).
T12 sequence (P00760 24-246): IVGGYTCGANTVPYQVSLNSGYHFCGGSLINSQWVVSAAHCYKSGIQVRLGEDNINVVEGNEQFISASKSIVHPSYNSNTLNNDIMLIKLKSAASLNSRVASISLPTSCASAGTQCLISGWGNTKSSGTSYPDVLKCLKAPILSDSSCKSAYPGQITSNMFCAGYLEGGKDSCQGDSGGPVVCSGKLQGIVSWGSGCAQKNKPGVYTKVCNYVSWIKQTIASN
The data set can be described thus: Surface plasmon resonance binding to trypsin.

Bridge positions count the residues as written; N and C are the ends. Peptide text beside a SMILES is read from it. Some results are limits rather than exact numbers.

T1 sequence (P00750 36-562): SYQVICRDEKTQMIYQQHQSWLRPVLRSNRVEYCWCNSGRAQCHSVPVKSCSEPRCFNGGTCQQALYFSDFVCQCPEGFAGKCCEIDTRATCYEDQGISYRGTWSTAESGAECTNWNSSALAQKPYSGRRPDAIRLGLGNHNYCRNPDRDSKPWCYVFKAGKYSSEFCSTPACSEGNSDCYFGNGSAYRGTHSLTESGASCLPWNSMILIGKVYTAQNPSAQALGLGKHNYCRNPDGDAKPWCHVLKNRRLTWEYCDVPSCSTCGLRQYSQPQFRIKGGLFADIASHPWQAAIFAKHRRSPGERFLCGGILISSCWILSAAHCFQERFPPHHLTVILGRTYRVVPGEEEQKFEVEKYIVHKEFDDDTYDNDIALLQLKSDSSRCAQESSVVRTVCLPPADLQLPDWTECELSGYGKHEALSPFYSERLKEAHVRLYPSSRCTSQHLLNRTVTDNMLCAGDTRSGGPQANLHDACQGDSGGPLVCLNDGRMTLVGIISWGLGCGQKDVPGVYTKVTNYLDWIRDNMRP
T9 sequence (P00742 235-488 limits assumed): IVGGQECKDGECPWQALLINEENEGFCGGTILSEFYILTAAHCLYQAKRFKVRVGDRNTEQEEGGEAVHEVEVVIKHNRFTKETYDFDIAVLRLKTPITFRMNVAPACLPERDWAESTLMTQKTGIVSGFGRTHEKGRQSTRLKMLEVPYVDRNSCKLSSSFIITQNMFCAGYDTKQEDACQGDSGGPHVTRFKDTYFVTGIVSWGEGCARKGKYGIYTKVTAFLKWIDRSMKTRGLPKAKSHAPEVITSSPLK
T9 sequence (P00742 41-179 partner limits assumed): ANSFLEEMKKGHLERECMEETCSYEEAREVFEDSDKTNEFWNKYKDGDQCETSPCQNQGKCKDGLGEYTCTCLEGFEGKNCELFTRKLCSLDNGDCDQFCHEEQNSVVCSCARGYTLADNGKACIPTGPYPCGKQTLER
T3 sequence (P00748 373-615 limits assumed, other chains not shown): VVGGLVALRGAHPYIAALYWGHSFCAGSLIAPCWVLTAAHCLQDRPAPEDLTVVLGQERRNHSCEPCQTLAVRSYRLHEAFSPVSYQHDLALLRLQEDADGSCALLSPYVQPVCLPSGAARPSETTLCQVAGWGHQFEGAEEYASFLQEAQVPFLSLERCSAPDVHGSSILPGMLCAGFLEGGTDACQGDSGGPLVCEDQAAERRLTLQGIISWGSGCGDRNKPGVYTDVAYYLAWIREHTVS
T10 sequence (P00747 581-810 limits assumed): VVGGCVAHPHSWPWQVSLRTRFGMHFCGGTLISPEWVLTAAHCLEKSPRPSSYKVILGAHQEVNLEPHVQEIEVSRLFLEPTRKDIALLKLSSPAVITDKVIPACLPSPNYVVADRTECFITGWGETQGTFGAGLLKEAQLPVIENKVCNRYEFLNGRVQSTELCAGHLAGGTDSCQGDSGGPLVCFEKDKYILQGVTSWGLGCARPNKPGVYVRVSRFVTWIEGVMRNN
T10 sequence (P00747 97-580 partner limits assumed): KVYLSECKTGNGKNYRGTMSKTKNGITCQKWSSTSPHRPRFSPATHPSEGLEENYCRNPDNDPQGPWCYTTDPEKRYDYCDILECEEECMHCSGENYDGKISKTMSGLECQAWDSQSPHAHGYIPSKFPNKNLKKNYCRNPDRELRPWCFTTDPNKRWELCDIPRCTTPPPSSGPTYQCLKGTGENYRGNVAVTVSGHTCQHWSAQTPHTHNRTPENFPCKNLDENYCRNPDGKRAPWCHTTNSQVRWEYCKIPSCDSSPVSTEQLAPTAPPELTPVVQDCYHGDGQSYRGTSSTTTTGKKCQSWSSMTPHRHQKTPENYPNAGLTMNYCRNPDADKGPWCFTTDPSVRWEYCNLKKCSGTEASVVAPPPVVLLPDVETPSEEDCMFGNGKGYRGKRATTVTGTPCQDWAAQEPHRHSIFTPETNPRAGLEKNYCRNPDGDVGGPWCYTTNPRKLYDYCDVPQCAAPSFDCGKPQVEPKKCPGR
T6 sequence (P03952 391-638 limits assumed): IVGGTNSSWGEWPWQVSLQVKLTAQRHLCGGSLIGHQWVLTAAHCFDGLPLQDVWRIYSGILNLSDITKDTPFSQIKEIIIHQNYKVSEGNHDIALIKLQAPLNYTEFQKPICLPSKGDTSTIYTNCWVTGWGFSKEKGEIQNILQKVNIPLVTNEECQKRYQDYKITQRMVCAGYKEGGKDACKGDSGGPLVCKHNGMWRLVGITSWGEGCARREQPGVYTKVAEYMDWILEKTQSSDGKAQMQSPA
T6 sequence (P03952 20-390 partner limits assumed): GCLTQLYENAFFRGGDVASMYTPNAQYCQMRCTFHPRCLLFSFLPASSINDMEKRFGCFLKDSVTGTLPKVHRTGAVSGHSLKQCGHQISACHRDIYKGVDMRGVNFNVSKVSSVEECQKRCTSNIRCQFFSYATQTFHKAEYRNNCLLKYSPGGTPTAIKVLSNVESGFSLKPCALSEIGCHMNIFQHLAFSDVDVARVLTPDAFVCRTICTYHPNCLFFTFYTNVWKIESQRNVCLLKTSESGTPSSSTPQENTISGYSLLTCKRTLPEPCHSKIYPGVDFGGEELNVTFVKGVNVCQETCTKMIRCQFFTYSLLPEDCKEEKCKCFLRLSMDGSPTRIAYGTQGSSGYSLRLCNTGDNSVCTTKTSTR
T2 sequence (P03951 388-625 limits assumed): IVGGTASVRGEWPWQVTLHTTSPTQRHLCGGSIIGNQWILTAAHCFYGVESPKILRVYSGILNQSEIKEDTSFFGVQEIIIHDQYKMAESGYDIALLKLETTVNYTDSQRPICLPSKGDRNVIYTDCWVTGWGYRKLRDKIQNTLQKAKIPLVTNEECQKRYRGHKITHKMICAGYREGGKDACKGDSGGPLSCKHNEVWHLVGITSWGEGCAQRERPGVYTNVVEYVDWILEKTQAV
T2 sequence (P03951 19-387 partner limits assumed): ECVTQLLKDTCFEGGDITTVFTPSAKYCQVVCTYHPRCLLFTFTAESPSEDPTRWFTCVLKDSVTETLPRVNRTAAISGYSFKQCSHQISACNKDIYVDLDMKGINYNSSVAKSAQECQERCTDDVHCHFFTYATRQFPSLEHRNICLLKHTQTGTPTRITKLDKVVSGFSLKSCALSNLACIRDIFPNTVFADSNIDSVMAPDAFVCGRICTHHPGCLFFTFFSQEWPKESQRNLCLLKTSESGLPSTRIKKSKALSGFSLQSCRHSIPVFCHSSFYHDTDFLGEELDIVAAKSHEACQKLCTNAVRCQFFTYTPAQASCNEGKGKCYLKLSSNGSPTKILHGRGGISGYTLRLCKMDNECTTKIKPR
T11 sequence (P00748 373-615 limits assumed, other chains not shown): as the sequence (P00748 373-615 limits assumed, other chains not shown) above

As to `CC[C@H](C)[C@@H]1NC(=O)CNC(=O)CNC(=O)[C@H](CC(=O)O)NC(=O)[C@H](CO)NC(=O)CNC(=O)[C@H](CO)NC(=O)CNC(=O)[C@@H]2CSSC[C@@H]3NC(=O)[C@H](CC(=O)O)NC(=O)[C@H](CO)NC(=O)[C@H](CC(=O)O)NC(=O)[C@H](CCCNC(=N)N)NC(=O)[C@H](CCCNC(=N)N)NC(=O)[C@@H]4CSSC[C@H](NC(=O)[C@H]([C@@H](C)CC)NC(=O)[C@H](CSSC[C@H](NC1=O)C(=O)N1CCC[C@H]1C(=O)N[C@@H](CCCNC(=N)N)C(=O)N[C@@H]([C@@H](C)CC)C(=O)NCC(=O)N[C@@H](CCCNC(=N)N)C(=O)N[C@@H](CC(C)C)C(=O)N4)NC(=O)[C@H](C)NC(=O)CNC(=O)[C@@H]1CCCN1C3=O)C(=O)N[C@@H](CCCNC(=N)N)C(=O)NCC(=O)N[C@@H](CC(N)=O)C(=O)NCC(=O)N[C@@H](Cc1ccc(O)cc1)C(=O)N2` [cMCoTI-fxL1] (cyclo(ACICRGNGYCGSGSDGGICPRIGRLCRRDSDCPG); disulfide 2-19, 4-26, 10-32), in data set [1], the “clotting time compared to control, PT assay” value is recorded as “No significant differences in clotting time compared to control assays”. Moreover, the IC50 in [2], in [3], in data set [5], in [7], in data set [8] and in data set [11] was above 5000 nM throughout. In [12], the IC50 is above 5000 nM. The inhibition at 5 µM stood at 1% in data set [2] (read-out: percent inhibition tPA); 1% in [3] (read-out: percent inhibition FXIa); 0% in [5] (read-out: percent inhibition uPA); 1% in [7] (read-out: percent inhibition Thrombin); 0% in data set [8] (read-out: percent inhibition Plasma kallikrein); 0% in [11] (read-out: percent inhibition FXa). For the same molecule, the inhibition at 5 µM in [12] (read-out: percent inhibition Plasmin) is 19%. Besides, the figures for the Ki in [4], in data set [9] and in data set [10] were 0.69 nM, 996 nM and 2210 nM, respectively. In addition, the “EC2× (concentration required to double the clotting time)” value in data set [6] is on record as 500 nM. The “resistance to serum proteases (in words)” value in [13] was “highly resistant to serum proteases”.
Consider `CC[C@H](C)[C@H](NC(=O)CNC(=O)CNC(=O)[C@@H](N)CC(=O)O)C(=O)N[C@H]1CSSC[C@@H]2NC(=O)[C@H](C)NC(=O)CNC(=O)[C@@H]3CCCN3C(=O)[C@@H]3CSSC[C@@H](C(=O)NCC(=O)N[C@@H](CO)C(=O)NCC(=O)N[C@@H](Cc4ccc(O)cc4)C(=O)O)NC(=O)[C@H](Cc4ccccc4)NC(=O)[C@H](CCCNC(=N)N)NC(=O)[C@H]([C@@H](C)O)NC(=O)[C@H](C)NC(=O)[C@H](CCCNC(=N)N)NC(=O)[C@H](CSSC[C@H](NC(=O)[C@H](CC(C)C)NC(=O)[C@H](CCCNC(=N)N)NC(=O)CNC(=O)[C@H]([C@@H](C)CC)NC(=O)[C@H](CCCNC(=N)N)NC(=O)[C@@H]4CCCN4C1=O)C(=O)N[C@@H](CCCNC(=N)N)C(=O)N[C@@H](CCCNC(=N)N)C(=O)N[C@@H](CC(=O)O)C(=O)N[C@@H](CO)C(=O)N[C@@H](CC(=O)O)C(=O)N3)NC(=O)[C@H]([C@@H](C)CC)NC2=O` [MCoFx1 acyclic] (H-DGGICPRIGRLCRRDSDCPGACICRATRFCGSGY-OH; disulfide 5-22, 12-24, 18-30), for which the Kd in data set [14] is 1.89 ± 0.04 nM; in data set [15], 59.6 nM. In [4], this molecule came in with a Ki of 0.73 ± 0.2 nM. In addition, the “resistance to serum proteases (in words)” value in [13] is reported as “highly resistant to serum proteases”.

Source of the values: patent US20240344241A1, “PROTEINACEOUS MOLECULES AND USES THEREFOR” (THE UNIVERSITY OF QUEENSLAND, priority 2021, published 2024).
